Data reported in ChEMBL document CHEMBL2029272, “7-Azabicyclo[2.2.1]heptane as a scaffold for the development of selective sigma-2 (σ2) receptor ligands” (Bioorg Med Chem Lett, 2012).

Key:
[1] = biological target: 5-hydroxytryptamine receptor 2A (Homo sapiens) (UniProt P28223); test: Inhibition of 5-HT2A receptor at 10 uM
[2] = biological target: T1, 5-hydroxytryptamine receptor 2C (Homo sapiens) (UniProt P28335); test: Inhibition of 5-HT2C receptor at 10 uM
T1 sequence (whole entry): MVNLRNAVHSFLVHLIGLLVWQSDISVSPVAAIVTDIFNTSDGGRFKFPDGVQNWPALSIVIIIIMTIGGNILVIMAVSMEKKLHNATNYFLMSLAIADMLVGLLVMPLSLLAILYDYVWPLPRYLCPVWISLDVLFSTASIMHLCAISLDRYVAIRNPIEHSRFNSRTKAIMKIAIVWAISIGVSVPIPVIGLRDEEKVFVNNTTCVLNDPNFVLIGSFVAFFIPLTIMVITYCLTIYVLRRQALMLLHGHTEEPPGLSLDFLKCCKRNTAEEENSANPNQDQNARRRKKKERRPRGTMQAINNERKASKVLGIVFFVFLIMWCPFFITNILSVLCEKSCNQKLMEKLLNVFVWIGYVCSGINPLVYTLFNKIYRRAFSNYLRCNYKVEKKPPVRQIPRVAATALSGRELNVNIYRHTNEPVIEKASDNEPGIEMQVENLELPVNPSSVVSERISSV

[3] = biological target: 5-hydroxytryptamine receptor 6 (Homo sapiens) (UniProt P50406); test: Inhibition of 5-HT6 receptor at 10 uM
[4] = biological target: 5-hydroxytryptamine receptor 5A (Homo sapiens) (UniProt P47898); test: Inhibition of 5-HT5A receptor at 10 uM
[5] = biological target: Histamine H1 receptor (Homo sapiens) (UniProt P35367); test: Inhibition of H1 receptor at 10 uM
[6] = biological target: D(2) dopamine receptor (Homo sapiens, UniProt P14416); test: Inhibition of D2 dopamine receptor at 10 uM
[7] = species on record: Rattus norvegicus; test: Inhibition of BZP receptor in rat brain at 10 uM; assay type: tissue-based
[8] = biological target: Histamine H2 receptor (Homo sapiens) (UniProt P25021); test: Inhibition of H2 receptor at 10 uM
[9] = biological target: Sodium-dependent serotonin transporter (Homo sapiens, UniProt P31645); test: Inhibition of SERT at 10 uM
[10] = biological target: 5-hydroxytryptamine receptor 1B (Homo sapiens) (UniProt P28222); test: Inhibition of 5-HT1B receptor at 10 uM
[11] = biological target: T2, Alpha-2A adrenergic receptor (Homo sapiens) (UniProt P08913); test: Inhibition of alpha2A adrenergic receptor at 10 uM
T2 sequence (whole entry): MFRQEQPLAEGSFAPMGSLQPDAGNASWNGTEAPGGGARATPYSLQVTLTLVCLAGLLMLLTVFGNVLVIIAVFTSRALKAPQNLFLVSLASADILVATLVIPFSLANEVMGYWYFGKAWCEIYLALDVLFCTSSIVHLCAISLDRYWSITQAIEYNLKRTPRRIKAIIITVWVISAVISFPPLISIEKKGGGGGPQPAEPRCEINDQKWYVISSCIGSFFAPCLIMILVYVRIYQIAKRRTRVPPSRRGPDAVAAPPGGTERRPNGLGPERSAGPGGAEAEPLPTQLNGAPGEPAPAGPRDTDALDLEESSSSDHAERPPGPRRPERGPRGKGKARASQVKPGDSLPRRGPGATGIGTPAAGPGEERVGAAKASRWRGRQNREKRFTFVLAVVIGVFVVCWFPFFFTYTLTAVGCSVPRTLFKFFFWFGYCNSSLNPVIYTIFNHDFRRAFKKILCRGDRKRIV

[12] = biological target: 5-hydroxytryptamine receptor 1D (Homo sapiens) (UniProt P28221); test: Inhibition of 5-HT1D receptor at 10 uM
[13] = biological target: Kappa-type opioid receptor (Homo sapiens) (UniProt P41145); test: Inhibition of kappa opioid receptor at 10 uM
[14] = biological target: Histamine H3 receptor (Homo sapiens, UniProt Q9Y5N1); test: Inhibition of H3 receptor at 10 uM
[15] = biological target: T3, Alpha-1A adrenergic receptor (Homo sapiens) (UniProt P35348); test: Inhibition of alpha1A adrenergic receptor at 10 uM
T3 sequence (whole entry): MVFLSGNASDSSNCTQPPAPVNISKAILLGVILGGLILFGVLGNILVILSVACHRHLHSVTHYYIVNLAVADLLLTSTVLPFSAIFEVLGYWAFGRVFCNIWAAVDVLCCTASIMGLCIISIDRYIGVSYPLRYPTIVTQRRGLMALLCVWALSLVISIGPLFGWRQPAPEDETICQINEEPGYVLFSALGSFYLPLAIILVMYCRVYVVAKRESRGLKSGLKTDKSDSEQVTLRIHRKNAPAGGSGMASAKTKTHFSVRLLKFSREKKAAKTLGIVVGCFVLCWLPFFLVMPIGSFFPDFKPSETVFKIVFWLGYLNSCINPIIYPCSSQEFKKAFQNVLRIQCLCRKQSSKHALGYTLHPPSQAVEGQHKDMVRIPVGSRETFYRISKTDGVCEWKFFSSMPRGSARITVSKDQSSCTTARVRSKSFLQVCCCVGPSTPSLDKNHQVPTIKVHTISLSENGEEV

[16] = biological target: T4, D(4) dopamine receptor (Homo sapiens) (UniProt P21917); test: Inhibition of D4 dopamine receptor at 10 uM
T4 sequence (whole entry): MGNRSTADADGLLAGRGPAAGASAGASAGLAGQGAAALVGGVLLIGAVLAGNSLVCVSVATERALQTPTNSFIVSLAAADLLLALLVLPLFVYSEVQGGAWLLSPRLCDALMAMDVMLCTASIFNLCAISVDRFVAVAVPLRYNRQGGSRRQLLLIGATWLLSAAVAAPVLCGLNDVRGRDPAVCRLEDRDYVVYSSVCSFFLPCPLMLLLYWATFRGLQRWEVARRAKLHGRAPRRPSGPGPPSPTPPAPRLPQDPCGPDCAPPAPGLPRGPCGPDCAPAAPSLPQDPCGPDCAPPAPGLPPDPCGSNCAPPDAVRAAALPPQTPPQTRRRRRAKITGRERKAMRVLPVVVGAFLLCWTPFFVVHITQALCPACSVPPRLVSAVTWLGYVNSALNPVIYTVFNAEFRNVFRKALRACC

[17] = biological target: D(1A) dopamine receptor (Homo sapiens) (UniProt P21728); test: Inhibition of D1 dopamine receptor at 10 uM
[18] = Inhibition of GABA-A receptor at 10 uM

Chain of 5-hydroxytryptamine receptor 2A (Homo sapiens) (P28223 whole entry): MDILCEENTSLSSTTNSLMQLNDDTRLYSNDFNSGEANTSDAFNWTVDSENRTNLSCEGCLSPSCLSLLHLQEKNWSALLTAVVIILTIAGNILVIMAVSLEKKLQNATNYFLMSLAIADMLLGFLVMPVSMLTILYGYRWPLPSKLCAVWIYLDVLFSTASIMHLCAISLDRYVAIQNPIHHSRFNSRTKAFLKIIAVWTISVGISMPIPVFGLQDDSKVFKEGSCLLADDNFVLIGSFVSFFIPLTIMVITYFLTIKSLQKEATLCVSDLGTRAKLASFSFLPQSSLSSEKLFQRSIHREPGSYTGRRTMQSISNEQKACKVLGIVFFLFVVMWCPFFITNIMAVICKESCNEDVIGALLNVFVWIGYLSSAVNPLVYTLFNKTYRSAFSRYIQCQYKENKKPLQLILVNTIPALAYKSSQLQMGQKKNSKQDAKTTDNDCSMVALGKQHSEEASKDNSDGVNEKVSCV
Chain of Histamine H3 receptor (Q9Y5N1 whole entry): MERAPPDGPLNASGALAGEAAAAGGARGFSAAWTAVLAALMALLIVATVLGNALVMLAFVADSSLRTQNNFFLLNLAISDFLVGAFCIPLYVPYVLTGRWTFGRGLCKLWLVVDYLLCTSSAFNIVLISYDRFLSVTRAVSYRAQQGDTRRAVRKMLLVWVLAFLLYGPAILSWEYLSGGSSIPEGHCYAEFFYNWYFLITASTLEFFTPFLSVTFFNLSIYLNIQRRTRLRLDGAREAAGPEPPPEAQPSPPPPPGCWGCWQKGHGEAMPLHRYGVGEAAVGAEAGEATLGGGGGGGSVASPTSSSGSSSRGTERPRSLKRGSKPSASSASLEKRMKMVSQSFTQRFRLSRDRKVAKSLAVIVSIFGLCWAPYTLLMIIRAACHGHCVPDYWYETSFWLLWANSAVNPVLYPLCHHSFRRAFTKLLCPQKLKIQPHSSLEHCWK
Chain of 5-hydroxytryptamine receptor 1B (Homo sapiens) (P28222 whole entry): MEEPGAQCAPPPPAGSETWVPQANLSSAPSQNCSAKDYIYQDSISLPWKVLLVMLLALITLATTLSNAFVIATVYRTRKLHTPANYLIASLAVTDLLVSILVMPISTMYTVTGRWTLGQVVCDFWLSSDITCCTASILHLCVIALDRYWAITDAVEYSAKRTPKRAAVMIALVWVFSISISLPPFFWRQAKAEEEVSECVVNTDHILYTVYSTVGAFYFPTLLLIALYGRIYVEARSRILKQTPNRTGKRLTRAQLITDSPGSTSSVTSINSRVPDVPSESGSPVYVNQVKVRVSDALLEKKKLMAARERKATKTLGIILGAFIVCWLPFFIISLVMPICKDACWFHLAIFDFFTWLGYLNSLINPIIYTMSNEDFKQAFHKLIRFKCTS
Chain of Sodium-dependent serotonin transporter (P31645 whole entry, looked up): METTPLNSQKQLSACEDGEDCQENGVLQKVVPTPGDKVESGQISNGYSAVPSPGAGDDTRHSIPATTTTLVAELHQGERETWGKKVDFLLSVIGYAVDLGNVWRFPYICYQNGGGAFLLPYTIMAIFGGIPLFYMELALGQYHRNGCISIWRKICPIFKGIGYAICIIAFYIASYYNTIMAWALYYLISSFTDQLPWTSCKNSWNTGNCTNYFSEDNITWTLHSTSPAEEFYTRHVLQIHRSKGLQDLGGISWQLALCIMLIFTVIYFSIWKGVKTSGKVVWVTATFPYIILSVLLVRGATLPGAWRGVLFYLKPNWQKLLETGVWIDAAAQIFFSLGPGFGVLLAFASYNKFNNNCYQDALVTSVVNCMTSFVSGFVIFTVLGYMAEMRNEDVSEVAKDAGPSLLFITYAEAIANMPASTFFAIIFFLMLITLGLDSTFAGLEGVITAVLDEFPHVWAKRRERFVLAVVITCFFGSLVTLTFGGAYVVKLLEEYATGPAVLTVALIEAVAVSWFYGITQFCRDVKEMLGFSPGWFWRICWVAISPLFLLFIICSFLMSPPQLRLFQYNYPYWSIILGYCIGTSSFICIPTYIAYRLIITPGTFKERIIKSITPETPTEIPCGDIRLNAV
Chain of D(1A) dopamine receptor (Homo sapiens) (P21728 whole entry): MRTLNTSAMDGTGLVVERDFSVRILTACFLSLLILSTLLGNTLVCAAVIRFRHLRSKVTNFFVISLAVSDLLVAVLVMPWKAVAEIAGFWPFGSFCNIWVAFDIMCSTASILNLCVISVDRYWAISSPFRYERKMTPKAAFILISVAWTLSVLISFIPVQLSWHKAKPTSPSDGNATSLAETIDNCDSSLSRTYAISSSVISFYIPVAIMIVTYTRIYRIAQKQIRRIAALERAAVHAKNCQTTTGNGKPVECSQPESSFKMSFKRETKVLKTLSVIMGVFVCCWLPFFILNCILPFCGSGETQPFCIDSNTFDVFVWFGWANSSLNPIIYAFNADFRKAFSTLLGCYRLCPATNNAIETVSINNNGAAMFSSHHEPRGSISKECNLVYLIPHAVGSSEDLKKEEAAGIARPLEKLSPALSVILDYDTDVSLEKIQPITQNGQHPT
Chain of Histamine H1 receptor (Homo sapiens) (P35367 whole entry): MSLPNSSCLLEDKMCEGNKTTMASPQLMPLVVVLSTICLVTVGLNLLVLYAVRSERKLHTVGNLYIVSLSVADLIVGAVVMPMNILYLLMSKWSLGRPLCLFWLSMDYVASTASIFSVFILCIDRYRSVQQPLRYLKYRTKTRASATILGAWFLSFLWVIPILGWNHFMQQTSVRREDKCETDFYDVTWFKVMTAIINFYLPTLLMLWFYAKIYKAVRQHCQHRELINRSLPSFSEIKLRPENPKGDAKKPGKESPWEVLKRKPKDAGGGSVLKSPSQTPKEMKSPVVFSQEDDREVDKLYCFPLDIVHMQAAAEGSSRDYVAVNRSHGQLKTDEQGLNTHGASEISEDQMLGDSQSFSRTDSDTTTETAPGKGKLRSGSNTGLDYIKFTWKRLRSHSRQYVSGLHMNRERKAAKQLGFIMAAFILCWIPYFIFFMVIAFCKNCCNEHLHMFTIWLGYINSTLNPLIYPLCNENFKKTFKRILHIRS
Chain of 5-hydroxytryptamine receptor 1D (Homo sapiens) (P28221 whole entry): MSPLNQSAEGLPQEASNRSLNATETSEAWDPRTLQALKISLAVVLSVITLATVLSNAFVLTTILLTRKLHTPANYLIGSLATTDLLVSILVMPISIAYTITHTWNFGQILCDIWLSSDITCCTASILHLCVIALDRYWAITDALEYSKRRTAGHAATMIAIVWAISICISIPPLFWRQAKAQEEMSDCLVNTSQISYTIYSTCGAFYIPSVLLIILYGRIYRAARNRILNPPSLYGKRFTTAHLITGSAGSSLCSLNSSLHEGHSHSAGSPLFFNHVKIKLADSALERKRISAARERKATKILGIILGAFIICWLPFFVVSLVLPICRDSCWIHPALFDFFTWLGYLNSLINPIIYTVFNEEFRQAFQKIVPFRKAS
Chain of 5-hydroxytryptamine receptor 6 (Homo sapiens) (P50406 whole entry): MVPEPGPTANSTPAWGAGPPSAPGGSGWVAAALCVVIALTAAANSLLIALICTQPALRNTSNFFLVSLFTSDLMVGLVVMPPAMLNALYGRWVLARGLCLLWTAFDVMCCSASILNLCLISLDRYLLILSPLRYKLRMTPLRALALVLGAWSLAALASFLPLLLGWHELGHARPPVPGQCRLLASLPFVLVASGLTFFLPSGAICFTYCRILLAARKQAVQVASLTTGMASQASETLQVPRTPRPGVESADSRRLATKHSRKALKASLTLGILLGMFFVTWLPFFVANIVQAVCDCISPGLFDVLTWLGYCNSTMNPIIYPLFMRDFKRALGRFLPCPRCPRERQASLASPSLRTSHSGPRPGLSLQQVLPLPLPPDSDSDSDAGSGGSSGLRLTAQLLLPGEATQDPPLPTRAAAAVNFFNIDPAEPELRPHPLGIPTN
Chain of Histamine H2 receptor (Homo sapiens) (P25021 whole entry): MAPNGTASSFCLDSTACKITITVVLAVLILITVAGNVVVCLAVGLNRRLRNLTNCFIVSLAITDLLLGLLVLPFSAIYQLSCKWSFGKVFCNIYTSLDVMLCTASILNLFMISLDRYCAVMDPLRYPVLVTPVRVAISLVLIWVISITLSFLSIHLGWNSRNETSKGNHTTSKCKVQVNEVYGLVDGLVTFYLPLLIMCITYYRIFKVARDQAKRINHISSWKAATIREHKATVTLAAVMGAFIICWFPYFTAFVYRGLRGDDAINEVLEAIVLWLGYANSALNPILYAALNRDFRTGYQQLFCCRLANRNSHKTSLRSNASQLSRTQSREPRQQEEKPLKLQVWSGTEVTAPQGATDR
Chain of D(2) dopamine receptor (P14416 whole entry): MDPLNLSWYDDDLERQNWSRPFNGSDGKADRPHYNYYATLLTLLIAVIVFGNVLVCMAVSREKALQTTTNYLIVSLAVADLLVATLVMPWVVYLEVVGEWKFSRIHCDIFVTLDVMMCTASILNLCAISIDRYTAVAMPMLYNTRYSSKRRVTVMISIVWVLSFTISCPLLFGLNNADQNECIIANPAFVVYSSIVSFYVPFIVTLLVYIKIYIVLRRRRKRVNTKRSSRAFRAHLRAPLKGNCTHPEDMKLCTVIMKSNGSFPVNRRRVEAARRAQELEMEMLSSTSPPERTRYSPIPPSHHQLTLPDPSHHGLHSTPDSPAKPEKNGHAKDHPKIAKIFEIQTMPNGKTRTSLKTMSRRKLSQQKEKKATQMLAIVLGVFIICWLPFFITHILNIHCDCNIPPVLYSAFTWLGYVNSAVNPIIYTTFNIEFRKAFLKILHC
Chain of 5-hydroxytryptamine receptor 5A (Homo sapiens) (P47898 whole entry): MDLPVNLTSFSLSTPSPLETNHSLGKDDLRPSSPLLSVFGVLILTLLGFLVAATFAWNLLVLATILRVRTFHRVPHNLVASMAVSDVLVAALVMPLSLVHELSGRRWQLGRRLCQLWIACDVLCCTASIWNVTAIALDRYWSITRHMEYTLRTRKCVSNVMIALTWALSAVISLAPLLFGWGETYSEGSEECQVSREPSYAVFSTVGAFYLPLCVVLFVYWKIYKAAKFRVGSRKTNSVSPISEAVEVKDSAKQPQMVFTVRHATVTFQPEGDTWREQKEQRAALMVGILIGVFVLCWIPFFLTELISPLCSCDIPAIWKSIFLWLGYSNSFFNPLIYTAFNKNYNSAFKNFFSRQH

SMILES | inhibition [1] | inhibition [2] | inhibition [3] | inhibition [4] | inhibition [5] | inhibition [6] | inhibition [7] | inhibition [8] | inhibition [9] | inhibition [10] | inhibition [11] | inhibition [12] | inhibition [13] | inhibition [14] | inhibition [15] | inhibition [16] | inhibition [17] | inhibition [18]
C1CCC(CN2C3CCC2CC3)CC1 | < 50% | < 50% | < 50% | < 50% | < 50% | < 50% | < 50% | < 50% | < 50% | < 50% | < 50% | < 50% | < 50% | < 50% | < 50% | < 50% | < 50% | < 50%
C1CCC(CN2CCCC2)CC1 | < 50% | < 50% | < 50% | < 50% | < 50% | < 50% | < 50% | < 50% | < 50% | < 50% | < 50% | < 50% | < 50% | < 50% | < 50% | < 50% | < 50% | < 50%
C1CC2CCC1N2CC12C3C4C5C3C1C5C42 (centres undefined) | < 50% | < 50% | < 50% | < 50% | < 50% | < 50% | < 50% | < 50% | < 50% | < 50% | < 50% | < 50% | < 50% | < 50% | < 50% | < 50% | < 50% | < 50%
